Measured values published in patent US7902235B2 (priority 2004, dated 2011).

Test system: not given
Conditions: not given

| Molecule | melting point |
| --- | --- |
| CC(OC(=O)NC(=O)c1cccc(-c2noc(-c3ccccc3F)n2)c1)C(C)(C)C (racemic) [Compound 37, (±)-{3-[5-(2-Fluorophenyl)-[1,2,4]oxadiazol-3-yl]benzoyl}carbamic Acid 1,2,2-trimethylpropyl Ester] | 170 to 173 °C |
| COC(=O)NC(=O)c1cccc(-c2noc(-c3ccccc3F)n2)c1 [Compound 1] | 176 to 177 °C |
| CCOC(=O)NC(=O)c1cccc(-c2noc(-c3ccccc3F)n2)c1 [Compound 2] | 160.5 to 162 °C |
| CC(C)OC(=O)NC(=O)c1cccc(-c2noc(-c3ccccc3F)n2)c1 [Compound 3] | 172 to 174 °C |
| O=C(NC(=O)c1cccc(-c2noc(-c3ccccc3F)n2)c1)NC1CC1 [Compound 4] | 226 to 227.5 °C |
| CONC(=O)NC(=O)c1cccc(-c2noc(-c3ccccc3F)n2)c1 [Compound 5] | 206 to 207 °C |
| NC(=O)NC(=O)c1cccc(-c2noc(-c3ccccc3F)n2)c1 [Compound 6] | 240 °C |
| O=C(NCCF)NC(=O)c1cccc(-c2noc(-c3ccccc3F)n2)c1 [Compound 7] | 233 to 234 °C |
| O=C(NC(=O)c1cccc(-c2noc(-c3ccccc3F)n2)c1)Nc1ncccn1 [Compound 8] | 247 to 249 °C |
| O=C(NC(=O)c1cccc(-c2noc(-c3ccccc3F)n2)c1)Nc1ccccn1 [Compound 9] | 252 to 254 °C |
| O=C(NC(=O)c1cccc(-c2noc(-c3ccccc3F)n2)c1)Oc1ccccc1 [Compound 10] | 252 to 254 °C |
| O=C(NC(=O)c1cccc(-c2noc(-c3ccccc3F)n2)c1)OC1CCOCC1 [Compound 11] | 177.5 to 179 °C |
| O=C(NC(=O)c1cccc(-c2noc(-c3ccccc3F)n2)c1)OCCN1CCOCC1 [Compound 12] | 223 to 224 °C |
| Cc1ccc(S(=O)(=O)NC(=O)NC(=O)c2cccc(-c3noc(-c4ccccc4F)n3)c2)cc1 [Compound 15] | 188 to 191 °C |
| O=C(NC(=O)c1cccc(-c2noc(-c3ccccc3F)n2)c1)OCCc1ccccc1 [Compound 16] | 129 to 130 °C |
| O=C(NC(=O)c1cccc(-c2noc(-c3ccccc3F)n2)c1)OC1CCCCC1 [Compound 17] | 172 to 174 °C |
| O=C(NC(=O)c1cccc(-c2noc(-c3ccccc3F)n2)c1)OCC1CCCCC1 [Compound 18] | 134 to 138 °C |
| O=C(NC(=O)c1cccc(-c2noc(-c3ccccc3F)n2)c1)OCc1ccccc1 [Compound 19] | 133 to 134 °C |
| CCCOC(=O)NC(=O)c1cccc(-c2noc(-c3ccccc3F)n2)c1 [Compound 20] | 152 to 155 °C |
| COCCOC(=O)NC(=O)c1cccc(-c2noc(-c3ccccc3F)n2)c1 [Compound 21] | 139 to 141 °C |
| O=C(NC(=O)c1cccc(-c2noc(-c3ccccc3F)n2)c1)OC1CCCC1 [Compound 22] | 187 to 190 °C |
| O=C(NC(=O)c1cccc(-c2noc(-c3ccccc3F)n2)c1)Oc1cccc2c1CCCC2 [Compound 23] | 199 to 202 °C |
| O=C(NC(=O)N1CCCC1)c1cccc(-c2noc(-c3ccccc3F)n2)c1 [Compound 24] | 178 to 180 °C |

| Molecule | melting point |
| --- | --- |
| O=C(NC(=O)N1CCOCC1)c1cccc(-c2noc(-c3ccccc3F)n2)c1 [Compound 25, Morpholine-4-carboxylic Acid 3-[5-(2-fluorophenyl)-[1,2,4]oxadiazol-3-yl]benzoylamide] | 190 to 194 °C |
| CCN(CC)C(=O)NC(=O)c1cccc(-c2noc(-c3ccccc3F)n2)c1 [Compound 26] | 161 to 163 °C |
| Cc1cc(C)cc(NC(=O)NC(=O)c2cccc(-c3noc(-c4ccccc4F)n3)c2)c1 [Compound 27] | 247 to 250 °C |
| O=C(NC(=O)N1CCN(c2ccccc2)CC1)c1cccc(-c2noc(-c3ccccc3F)n2)c1 [Compound 28] | 169 to 173 °C |
| CC(OC(=O)NC(=O)c1cccc(-c2noc(-c3ccccc3F)n2)c1)c1ccccc1 (centres unmarked) [Compound 30] | 140 to 141 °C |
| CC(OC(=O)NC(=O)c1cccc(-c2noc(-c3ccccc3F)n2)c1)C1CC1 (centres unmarked) [Compound 31] | 150 to 152 °C |
| O=C(NC(=O)c1cccc(-c2noc(-c3ccccc3F)n2)c1)OC1CCCc2ccccc21 (centres unmarked) [Compound 32] | 168 to 170 °C |
| O=C(NC(=O)c1cccc(-c2noc(-c3ccccc3F)n2)c1)OC(c1ccccc1)C(F)(F)F (centres unmarked) [Compound 33] | 164 to 165 °C |
| COCC(C)OC(=O)NC(=O)c1cccc(-c2noc(-c3ccccc3F)n2)c1 (centres unmarked) [Compound 34] | 141 to 143 °C |
| O=C(NC(=O)c1cccc(-c2noc(-c3ccccc3F)n2)c1)OC1CCOC1 (centres unmarked) [Compound 35] | 197 to 200 °C |
| O=C(NC(=O)c1cccc(-c2noc(-c3ccccc3F)n2)c1)OC1Cc2ccccc2C1 [Compound 36] | 165 to 168 °C |
| CC(C)C(C)OC(=O)NC(=O)c1cccc(-c2noc(-c3ccccc3F)n2)c1 (centres unmarked) [Compound 38] | 168 to 170 °C |
| CC(C)CC(C)OC(=O)NC(=O)c1cccc(-c2noc(-c3ccccc3F)n2)c1 (centres unmarked) [Compound 39] | 108 to 109 °C |
| CC(OC(=O)NC(=O)c1cccc(-c2noc(-c3ccccc3F)n2)c1)c1ccc(C(F)(F)F)cc1 (centres unmarked) [Compound 40] | 161 to 163 °C |
| O=C(NC(=O)c1cccc(-c2noc(-c3ccccc3F)n2)c1)OC1CCN(Cc2ccccc2)CC1 [Compound 42] | 132 to 134 °C |
| CN1C(=O)C[C@H](OC(=O)NC(=O)c2cccc(-c3noc(-c4ccccc4F)n3)c2)C1=O [Compound 43] | 120 to 123 °C |
| C[C@@H](OC(=O)NC(=O)c1cccc(-c2noc(-c3ccccc3F)n2)c1)C(N)=O [Compound 44] | 193 to 196 °C |
| CC(=O)NC(=O)c1cccc(-c2noc(-c3ccccc3F)n2)c1 [Compound 45, N-Acetyl-3-[5-(2-fluorophenyl)-[1,2,4]oxadiazol-3-yl]benzamide] | 119 to 120 °C |
| CC(C)C(=O)NC(=O)c1cccc(-c2noc(-c3ccccc3F)n2)c1 [Compound 46, 3-[5-(2-Fluorophenyl)-[1,2,4]oxadiazol-3-yl]-N-isobutyrl-benzamide] | 183 to 184 °C |
| O=C(NC(=O)C(F)(F)F)c1cccc(-c2noc(-c3ccccc3F)n2)c1 [Compound 47] | 119 to 120 °C |
| CC(OC(=O)NC(=O)c1cccc(-c2noc(-c3ccccc3F)n2)c1)c1ccncc1 (centres unmarked) [Compound 48] | 180 to 183 °C |
| O=C(NC(=O)c1cccc(-c2noc(-c3ccccc3F)n2)c1)O[C@@H]1CCOC1 [Compound 49] | 152 to 156 °C |
| CC(OC(=O)NC(=O)c1cccc(-c2noc(-c3ccccc3F)n2)c1)c1ccc(F)cc1 (centres unmarked) [Compound 51] | 116 to 118 °C |

Test system: tripeptidyl-peptidase 1 (TPP-I)
Conditions: patient-derived LINCL cell line, compound heterozygous Arg208Stop and a rare nonsense mutation; maximal; cited from earlier work

| Molecule | TPP-I restored, of normal levels |
| --- | --- |
| gentamicin | approximately 7% |
